In patent publication US9555022B2, “Substituted triazolopyridines” (Bayer Intellectual Property GmbH, priority 2010, dated 2017):

Biological target: human full length recombinant Mps-1 kinase (Homo sapiens (Human), UniProt P33981)
Test: Mps-1 Kinase Assay (TR-FRET)
Type: biochemical
Conditions: 10 μM ATP, 1 μM biotinylated peptide substrate, 60 min at 22° C., read-out: Mps-1 Inhibition, IC50 in M
Summary of the method: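 Kinase activity of N-terminally GST-tagged full-length recombinant Mps-1, used at about 1 nM final and set within the linear range, was measured on a biotinylated peptide substrate. Phosphopeptide was detected by TR-FRET from Eu-anti-phospho(Ser/Thr) antibody to streptavidin-XLent after 1 h at 22° C.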

Chain of human full length recombinant Mps-1 kinase (P33981 whole entry): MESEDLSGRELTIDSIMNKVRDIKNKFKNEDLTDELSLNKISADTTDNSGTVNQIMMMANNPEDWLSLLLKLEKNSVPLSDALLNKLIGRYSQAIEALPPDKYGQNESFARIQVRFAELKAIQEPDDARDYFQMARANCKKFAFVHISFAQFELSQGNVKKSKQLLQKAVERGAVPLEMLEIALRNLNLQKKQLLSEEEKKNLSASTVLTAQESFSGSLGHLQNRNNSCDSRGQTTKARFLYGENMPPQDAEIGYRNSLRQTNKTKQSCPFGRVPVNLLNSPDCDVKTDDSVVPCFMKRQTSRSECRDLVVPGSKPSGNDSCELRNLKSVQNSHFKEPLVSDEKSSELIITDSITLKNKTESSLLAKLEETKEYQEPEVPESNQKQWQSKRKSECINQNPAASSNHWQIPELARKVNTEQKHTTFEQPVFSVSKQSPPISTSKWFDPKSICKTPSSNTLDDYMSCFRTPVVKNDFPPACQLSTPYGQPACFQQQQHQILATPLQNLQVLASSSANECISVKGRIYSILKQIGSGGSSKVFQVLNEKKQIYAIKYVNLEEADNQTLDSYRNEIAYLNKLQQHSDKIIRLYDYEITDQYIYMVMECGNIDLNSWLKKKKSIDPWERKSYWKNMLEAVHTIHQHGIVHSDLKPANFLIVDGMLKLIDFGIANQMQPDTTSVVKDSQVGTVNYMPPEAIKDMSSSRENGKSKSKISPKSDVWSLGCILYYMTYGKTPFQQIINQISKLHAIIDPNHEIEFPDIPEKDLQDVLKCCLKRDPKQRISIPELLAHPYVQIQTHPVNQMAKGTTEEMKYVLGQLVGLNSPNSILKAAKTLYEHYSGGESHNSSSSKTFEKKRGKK

SMILES	IC50
CCOc1cc(C(=O)N2CCOCC2)ccc1Nc1nc2ccc(-c3ccc(NC(=O)CC4CC4)cc3)cn2n1 [Example 01.02, 2-cyclopropyl-N-[4-(2-{[2-ethoxy-4-(morpholin-4-ylcarbonyl)phenyl]amino}[,2]-triazolo[1,5-a]pyridin-6-yl)phenyl]acetamide]	≤ 1 nM
COc1cc(C(=O)N2CCN(C)CC2)ccc1Nc1nc2ccc(-c3ccc(NC(=O)Cc4ccc(F)cc4)cc3)cn2n1 [Example 02.04, 2-(4-fluorophenyl)-N-{4-[2-({2-methoxy-4-[(4-methylpiperazin-1-yl)carbonyl]phenyl}amino)[,2]triazolo[1,5-a]pyridin-6-yl]phenyl}acetamide]	≤ 1 nM
Cc1cc(C(=O)N2CC3(COC3)C2)ccc1Nc1nc2ccc(-c3ccc(NC(=O)Cc4ccc(F)cc4)cc3)cn2n1 [Example 02.38, 2-(4-fluorophenyl)-N-[4-(2-{[2-methyl-4-(2-oxa-6-azaspiro[3.3]hept-6-ylcarbonyl)phenyl]amino}[,2]triazolo[1,5-a]pyridin-6-yl)phenyl]acetamide]	≤ 1 nM
CSc1cc(OC2CCN(C)CC2)ccc1Nc1nc2ccc(-c3ccc(NC(=O)Cc4ccc(F)cc4)cc3)cn2n1 [Example 02.36, 2-(4-fluorophenyl)-N-{4-[2-({4-[(1-methylpiperidin-4-yl)oxy]-2-(methylsulfanyl)phenyl}amino)[,2]triazolo[1,5-a]pyridin-6-yl]phenyl}acetamide]	≤ 1 nM
CCOc1cc(C(=O)N2CCOCC2)ccc1Nc1nc2ccc(-c3ccc(NC(=O)Cc4ccc(F)cc4)cc3)cn2n1 [Example 02.02, N-[4-(2-{[2-ethoxy-4-(morpholin-4-ylcarbonyl)phenyl]amino}[,2]-triazolo[1,5-a]pyridin-6-yl)phenyl]-2-(4-fluorophenyl)acetamide]	≤ 1 nM
COc1cc(C2=NCCO2)ccc1Nc1nc2ccc(-c3ccc(NC(=O)Cc4ccc(F)cc4)cc3)cn2n1 [Example 02.14, N-[4-(2-{[4-(4,5-dihydro-1,3-oxazol-2-yl)-2-methoxyphenyl]amino}[,2]-triazolo[1,5-a]pyridin-6-yl)phenyl]-2-(4-fluorophenyl)acetamide]	≤ 1 nM
O=C(Cc1ccc(F)cc1)Nc1ccc(-c2ccc3nc(Nc4ccc(C(=O)N5CC(O)C5)cc4OCC(F)(F)F)nn3c2)cc1 [Example 02.27, 2-(4-fluorophenyl)-N-{4-[2-({4-[(3-hydroxyazetidin-1-yl)carbonyl]-2-(2,2,2-trifluoroethoxy)phenyl}amino)[,2]triazolo[1,5-a]pyridin-6-yl]phenyl}acetamide]	≤ 1 nM
COc1cc(C2=NC(C)(C)CO2)ccc1Nc1nc2ccc(-c3ccc(NC(=O)Cc4ccc(F)cc4)cc3)cn2n1 [Example 02.03, N-[4-(2-{[4-(4,4-dimethyl-4,5-dihydro-1,3-oxazol-2-yl)-2-methoxyphenyl]amino}[,2]-triazolo[1,5-a]pyridin-6-yl)phenyl]-2-(4-fluorophenyl)acetamide]	1.04 nM
COc1cc(C(=O)NC2COC2)ccc1Nc1nc2ccc(-c3ccc(NC(=O)Cc4ccc(F)cc4)cc3)cn2n1 [Example 02.21, 4-{[6-(4-{[(4-fluorophenyl)acetyl]amino}phenyl)[,2]triazolo[1,5-a]pyridin-2-yl]amino}-3-methoxy-N-(oxetan-3-yl)benzamide]	≤ 1 nM
Cc1cc(N2CCOC2=O)ncc1Nc1nc2ccc(-c3ccc(NC(=O)Cc4ccc(F)cc4)cc3)cn2n1 [Example 02.13, 2-(4-fluorophenyl)-N-[4-(2-{[4-methyl-6-(2-oxo-1,3-oxazolidin-3-yl)pyridin-3-yl]amino}[,2]-triazolo[1,5-a]pyridin-6-yl)phenyl]acetamide]	≤ 1 nM
COc1cc(C(=O)N2CCC2)ccc1Nc1nc2ccc(-c3ccc(NC(=O)Cc4ccc(F)cc4)cc3)cn2n1 [Example 02.22, N-[4-(2-{[4-(azetidin-1-ylcarbonyl)-2-methoxyphenyl]amino}[,2]-triazolo[1,5-a]pyridin-6-yl)phenyl]-2-(4-fluorophenyl)acetamide]	≤ 1 nM
O=C(Cc1ccc(F)cc1)Nc1ccc(-c2ccc3nc(Nc4ccc(C(=O)N5CC6(COC6)C5)cc4OC(F)(F)F)nn3c2)cc1 [Example 02.40, 2-(4-fluorophenyl)-N-[4-(2-{[4-(2-oxa-6-azaspiro[3.3]hept-6-ylcarbonyl)-2-(trifluoromethoxy)phenyl]amino}[,2]triazolo[1,5-a]pyridin-6-yl)phenyl]acetamide]	≤ 1 nM

More lines, now with the values ahead:

IC50	SMILES
≤ 1 nM	COc1cc(C(=O)N2C[C@@H]3C[C@H]2CO3)ccc1Nc1nc2ccc(-c3ccc(C(=O)NCc4ccc(F)cc4)cc3)cn2n1 [Example 04.06, N-(4-fluorobenzyl)-4-[2-({2-methoxy-4-[(1S,4S)-2-oxa-5-azabicyclo[2.2.1]hept-5-ylcarbonyl]phenyl}amino)[,2]triazolo[1,5-a]pyridin-6-yl]benzamide]
≤ 1 nM	O=C(NCc1ccc(F)cc1)c1ccc(-c2ccc3nc(Nc4ccc(C(=O)N5CC6(COC6)C5)cc4OCC(F)(F)F)nn3c2)cc1 [Example 04.15, N-(4-fluorobenzyl)-4-(2-{[4-(2-oxa-6-azaspiro[3.3]hept-6-ylcarbonyl)-2-(2,2,2-trifluoroethoxy)phenyl]amino}[,2]-triazolo[1,5-a]pyridin-6-yl)benzamide]
≤ 1 nM	COc1cc(C(=O)N2CC3(COC3)C2)ccc1Nc1nc2ccc(-c3ccc(C(=O)NCC4CC4)cc3)cn2n1 [Example 03.07, N-(cyclopropylmethyl)-4-(2-{[2-methoxy-4-(2-oxa-6-azaspiro[3.3]hept-6-ylcarbonyl)phenyl]amino}[,2]triazolo[1,5-a]pyridin-6-yl)benzamide]
≤ 1 nM	O=C(NCC1CC1)c1ccc(-c2ccc3nc(Nc4ccc(C(=O)N5CCOCC5)cc4OCC(F)(F)F)nn3c2)cc1 [Example 03.06, N-(cyclopropylmethyl)-4-(2-{[4-(morpholin-4-ylcarbonyl)-2-(2,2,2-trifluoroethoxy)phenyl]amino}[,2]-triazolo[1,5-a]pyridin-6-yl)benzamide]
≤ 1 nM	CCOc1cc(C(=O)N2CCOCC2)ccc1Nc1nc2ccc(-c3ccc(C(=O)NCC4CC4)cc3)cn2n1 [Example 03.02, N-(cyclopropylmethyl)-4-(2-{[2-ethoxy-4-(morpholin-4-ylcarbonyl)phenyl]amino}[,2]-triazolo[1,5-a]pyridin-6-yl)benzamide]
≤ 1 nM	COc1cc(C(=O)N2CCOCC2)ccc1Nc1nc2ccc(-c3ccc(C(=O)NCc4ccc(C)cc4)cc3)cn2n1 [Example 05.02, 4-(2-{[2-methoxy-4-(morpholin-4-ylcarbonyl)phenyl]amino}[,2]-triazolo[1,5-a]pyridin-6-yl)-N-(4-methylbenzyl)benzamide]
≤ 1 nM	CCOc1cc(N2CCOC2=O)ccc1Nc1nc2ccc(-c3ccc(C(=O)NCc4ccc(F)cc4)cc3)cn2n1 [Example 04.04, 4-(2-{[2-ethoxy-4-(2-oxo-1,3-oxazolidin-3-yl)phenyl]amino}[,2]triazolo[1,5-a]pyridin-6-yl)-N-(4-fluorobenzyl)benzamide]
≤ 1 nM	COc1cc(CN2CCN(C)CC2)ccc1Nc1nc2ccc(-c3ccc(C(=O)NCc4ccc(F)cc4)cc3)cn2n1 [Example 04.24, N-(4-fluorobenzyl)-4-[2-({2-methoxy-4-[(4-methylpiperazin-1-yl)methyl]phenyl}amino)[,2]triazolo[1,5-a]pyridin-6-yl]benzamide]
≤ 1 nM	COc1cc(C(=O)N2CCS(=O)(=O)CC2)ccc1Nc1nc2ccc(-c3ccc(C(=O)NCc4ccc(F)cc4)cc3)cn2n1 [Example 04.09, 4-[2-({4-[(1,1-dioxidothiomorpholin-4-yl)carbonyl]-2-methoxyphenyl}amino)[,2]triazolo[1,5-a]pyridin-6-yl]-N-(4-fluorobenzyl)benzamide]
≤ 1 nM	COc1cc(N2CCOC2=O)ccc1Nc1nc2ccc(-c3ccc(C(=O)NCc4ccc(F)cc4F)c(C)c3)cn2n1 [Example 12.01, N-(2,4-difluorobenzyl)-4-(2-{[2-methoxy-4-(2-oxo-1,3-oxazolidin-3-yl)phenyl]amino}[,2]triazolo[1,5-a]pyridin-6-yl)-2-methylbenzamide]
≤ 1 nM	COc1cc(C(=O)N2CCOCC2)ccc1Nc1nc2ccc(-c3ccc(C(=O)NCc4ccc(F)cc4)c(C)c3)cn2n1 [Example 07.01, N-(4-fluorobenzyl)-4-(2-{[2-methoxy-4-(morpholin-4-ylcarbonyl)phenyl]amino}[,2]-triazolo[1,5-a]pyridin-6-yl)-2-methylbenzamide]
≤ 1 nM	COc1cc(C(=O)N2CC(O)C2)ccc1Nc1nc2ccc(-c3ccc(C(=O)NCc4ccc(F)cc4)cc3)cn2n1 [Example 04.08, N-(4-fluorobenzyl)-4-[2-({4-[(3-hydroxyazetidin-1-yl)carbonyl]-2-methoxyphenyl}amino)[,2]-triazolo[1,5-a]pyridin-6-yl]benzamide]
≤ 1 nM	O=C(NCc1ccc(F)cc1)c1ccc(-c2ccc3nc(Nc4ccc(C(=O)N5CCOCC5)cc4OC(F)(F)F)nn3c2)cc1 [Example 04.31, N-(4-fluorobenzyl)-4-(2-{[4-(morpholin-4-ylcarbonyl)-2-(trifluoromethoxy)phenyl]amino}[,2]-triazolo[1,5-a]pyridin-6-yl)benzamide]
≤ 1 nM	COc1cc(C(=O)N2CCOCC2)ccc1Nc1nc2ccc(-c3ccc(C(=O)NCc4ccc(F)cc4)cc3)cn2n1 [Example 04.01, N-(4-Fluorbenzyl)-4-(2-{[2-methoxy-4-(morpholin-4-ylcarbonyl)phenyl]amino}[,2]-triazolo[1,5-a]pyridin-6-yl)benzamid]
≤ 1 nM	COc1cc(C(=O)N2CCOCC2)ccc1Nc1nc2ccc(-c3ccc(C(=O)NCc4ccc(Cl)cc4)cc3)cn2n1 [Example 05.01, N-(4-chlorobenzyl)-4-(2-{[2-methoxy-4-(morpholin-4-ylcarbonyl)phenyl]amino}[,2]-triazolo[1,5-a]pyridin-6-yl)benzamide]
≤ 1 nM	COc1cc(CN2CCOCC2)ccc1Nc1nc2ccc(-c3ccc(C(=O)NCc4ccc(F)cc4)cc3)cn2n1 [Example 04.25, N-(4-fluorobenzyl)-4-(2-{[2-methoxy-4-(morpholin-4-ylmethyl)phenyl]amino}[,2]-triazolo[1,5-a]pyridin-6-yl)benzamide]
